According to US12507703B2, “Methods, devices and compositions for preserving human milk” (The Trustees of Princeton University, priority 2023, dated 2025):
Values joined by “and” are separate entries in the source; they are usually repeats but may differ in a detail not shown here. Equal entries are not always repeated. Where two headings read alike, the source gives them in different places.

Assays:
[1] = tested on: glycerol; test: Glycerol-Glo assay of glycerol (byproduct of fat breakdown) in stored human milk; type: biochemical
Experimental: Eight human milk samples were tested to determine if glycerol, a byproduct of fat breakdown, accumulated after storage. Human milk samples were collected from the same donor anywhere between 1 month and 7 months after birth, frozen, and then thawed for testing. The samples were frozen on the same day as collection. […] The samples were thawed, and the presence of glycerol was detected by a glycerol-dependent, light-producing reaction presented as a measure of bioluminescence using the Glycerol-Glo™ Assay (Promega; catalog #: J3150) according to the manufacturer's instructions. A buffer with either 0 μM glycerol or 100 μM glycerol, alongside organic whole milk (cow) was used as a control. Glycerol content (bioluminescence) was measured using a BioTek Synergy Neo2 Hybrid Multimode Reader (Agilent; catalog #: BTNE02).

[2] = tested on: lipase; test: Lipase/lipolysis assay (EnzChek Lipase Substrate, quenched BODIPY-fatty acid conjugate) on stored human milk; conditions: for Lipolysis: 5 ounces unpasteurized human milk, frozen −20° C. 1 week
[3] = Total Antioxidant Capacity Assay Kit on stored human milk
Experimental: The compounds in Table 7 were added to fresh human milk and the samples were stored for 1 week at −20° C. […] Additionally, select compounds were tested for total Antioxidant capacity using the Total Antioxidant Capacity: Total Antioxidant Capacity Assay Kit (Abcam; catalog #: ab65329) in accordance with the manufacturer's instructions and presented as a relative ratio compared to fresh human milk. […] Lipase was considered inhibited with a RFU <400, glycerol was considered inhibited with an RLU <150,000, and total antioxidant capacity considered maintained with a ratio >0.75. Results presented in Table 7 represent a dose of 500 μg/mL for vitamin C, E and the carbonate/bicarbonates. All other compounds are at 20 mg/mL. Additionally, all compounds were tested for lipase and antioxidant capacity at multiple dilutions.

[4] = Table 7, 500 μg/mL, relative ratio compared to fresh human milk, maintained if >0.75

| Compound | Glycerol (RLU) [1] | Lipase (RFU) [2] | other results |
| --- | --- | --- | --- |
| O.O=C[C@H](O)[C@@H](O)[C@@H](O)[C@H](O)C(=O)O [D-(+)-Galacturonic acid monohydrate] | 71322 RLU | 324.895 RFU | – |
| O=C(O)[C@H]1O[C@H](O[C@@H]2[C@H](O)[C@@H](O)[C@@H](O)O[C@@H]2C(=O)O)[C@H](O)[C@@H](O)[C@H]1O [Digalacturonic acid] | 61741 RLU | 264.075 RFU | – |
| O=C(O)[C@H]1O[C@H](O[C@@H]2[C@H](O)[C@@H](O)[C@@H](O[C@@H]3[C@H](O)[C@@H](O)C(O)O[C@@H]3C(=O)O)O[C@@H]2C(=O)O)[C@H](O)[C@@H](O)[C@H]1O (stereo partly shown) [Trigalacturonic acid] | 61363 RLU | 352.972 RFU | – |
| O=C1O[C@H]([C@@H](O)CO)C(O)=C1O [Vitamin C, ascorbic acid] | – | – | Total Antioxidant Capacity [3, 4]: 2 |
| Guar gum | 744165 RLU | – | Total Antioxidant Capacity [3]: 0.59 |
| Gum arabic | 329275 RLU | 744.000 RFU | Total Antioxidant Capacity [3]: 0.64 |
| Lambda carageenan | 140894 RLU | 432.920 RFU | – |
| Locust bean gum | 435487 RLU | 1054.203 RFU | Total Antioxidant Capacity [3]: 0.55 |
| Pectin | – | – | Total Antioxidant Capacity ([3]; Subject 1, 5 ounces unpasteurized human milk, frozen −20° C. 1 week, measure of absorbance): 0.204; Total Antioxidant Capacity ([3]; Subject 2, 5 ounces unpasteurized human milk, frozen −20° C. 1 week, measure of absorbance): 0.264; Total Antioxidant Capacity ([3]; Subject 3, 5 ounces unpasteurized human milk, frozen −20° C. 1 week, measure of absorbance): 0.364; Lipolysis ([2]; Subject 1): 209; Lipolysis ([2]; Subject 2): 525; Lipolysis ([2]; Subject 3): 280 |
| Perfected guar gum | 838585 RLU | 1061.697 RFU | Total Antioxidant Capacity [3]: 0.72 |
| Poly-D-galacturonic acid methyl ester (apple) | 643757 RLU | 611.342 RFU | – |
| Poly-D-galacturonic acid methyl ester (citrus) | 122743 RLU | 320.660 RFU | – |
| Polygalacturonic acid | 120477 RLU | 398.125 RFU | – |
| Pseudoginsenoside F11 | – | 810.4484 RFU | – |
| Pyropheophorbide-a | – | 1205.079 RFU | – |
| Rebaudioside A | – | 1278.993 RFU | – |
| Rhamnose | – | 816.2993 RFU and 1253.305 RFU | – |
| Riboflavin (phosphate sodium) [listing 1 of 2 here] | – | 760.1592 RFU | – |
| Riboflavin (phosphate sodium) [listing 2 of 2 here] | – | 1091.899 RFU | – |

| Compound | Glycerol (RLU) [1] | Lipase (RFU) [2] | other results |
| --- | --- | --- | --- |
| Schaftoside | – | 900.214 RFU | – |
| Solanesol | – | 985.7418 RFU | – |
| Sorafenib (Tosylate) | – | 986.7553 RFU | – |
| Tara gum | – | 841.631 RFU | – |
| Theaflavin 3,3′-digallate | – | 933.3624 RFU | – |
| Theaflavin-3′-gallate | – | 780.4384 RFU | – |
| Thiamine nitrate | – | 1094.609 RFU and 1092.499 RFU | – |
| Triolein | – | 728.6705 RFU | – |
| Triton X-100 [reference compound] | 145670 RLU | 370.282 RFU | – |
| Tween 80 | 113807 RLU | – | Effect on glycerol production (in words) [1]: reduced lipase and glycerol production; Effect on lipase / lipolysis (in words) [2]: reduced lipase and glycerol production; Hit in lipase inhibition screen (in words) [2]: significantly inhibited lipase activity |
| Ursolic acid acetate | – | 811.3971 RFU | – |
| Xanthan gum | – | 873.106 RFU | – |
| Xylan | – | 1273.332 RFU | – |
| tocopherol [Vitamin E] | – | – | Total Antioxidant Capacity [3, 4]: 2 |
| trans-Zeatin | – | 1016.786 RFU | – |
| β Glucan - 1,3/1,6 | – | 942.984 RFU | – |
| β-Alanine | – | 882.8696 RFU and 1205.931 RFU | – |
| β-D-Glucan from barley | – | 995.347 RFU | – |
| γ-Oryzanol | – | 1128.852 RFU | – |
